The text below walks through data of publication PMC6070671, “Enhancement of Tumor Cell Death by Combining gef Gene Mediated Therapy and New 1,4-Benzoxazepin-2,6-Dichloropurine Derivatives in Breast Cancer Cells” (Frontiers in Pharmacology, 2018).

“And” between values parts separate entries of the source, which are not always exact repeats. Equal entries are not always repeated.

The test system of test [1] is MCF-7TG cell line. The test can be described thus: Annexin V-FITC/PI apoptosis flow cytometry, MCF-7TG. The following applies: 72 h, IC50 of compound, control 0.74 ± 0.05%. The class given is cell-based, human. From the text:
(§1) Apoptosis was detected using the apoptosis detection kit for annexin V-FITC (Pharmingen, San Diego, CA, United States) by flow cytometry according to [Boulaiz et al. (2003a)]. […] The results were representative of three independent experiments.
On the technique in general: In flow cytometry, cells or beads pass a laser one at a time.

The next test deals with MCF-7TG cells. Briefly: In vitro cell proliferation assay over 15 days, MCF-7TG. In kind it is cell-based, human. The conditions noted are these: for growth inhibition: MCF-7TG (gef expressed), 15 days of treatment; for type of synergistic effect with the gef gene: combined with gef gene, proliferation over 15 days. On the procedure: (§2) MCF-7, MCF-7TG, and MCF-7pMAMneo cells were seeded at a density of 25 × 10^3/well into six-well plates using the culture conditions above mentioned. After 24 h, fresh medium was added to the cells and treated with IC50 and 2^∗IC50 of drugs cited in Table 1. No treatment was added to the control groups. To ensure the expression of the gef gene, MCF-7TG cells medium was always treated with 1 μM Dex. Cells in culture were always treated with or without drugs every 3 days when medium was changed up to the end of the assay. Four plates were used to run each treatment and time point (0, 3, 6, 9, 12, and 15 days of treatment). After the end of the treatment, we used sulforhodamine-B to stain the cells as previously described.

The subject of the next test is MCF-7TG cancer cell line. Briefly: Sulforhodamine-B cytotoxicity assay, MCF-7TG (gef-expressing). The class given is cell-based. The following applies: Homo sapiens, 144 h; 6 days of treatment, gef gene induced with 1 μM Dex. The source says:
(§3) The breast cancer cell line MCF-7 was kindly provided by Dr. N. Olea of the Sánchez Mora Tumoural Biology Institute (University Hospital of Granada). The MCF-7TG cell line, a gef-expressing breast cancer cell line controlled by a mouse mammary tumor virus promoter and inducible by dexamethasone (Dex) was derivates from MCF-7 cells following methodology previously described by us ([Boulaiz et al., 2003b]). A selected MCF-7pMAMneo empty vector positive clone was also used. Non-tumoral breast cell line MCF-10A (ATCC: CRL-10317) was provided by the Cell Bank of the University of Granada (Granada, Spain). MCF-7 cells were cultured in a humidified atmosphere at 37°C with 5% CO2 and Dulbecco’s modified Eagle Medium (DMEM) (Gibco, Grand Island, NY, United States) with 10% heat-inactivated fetal bovine serum (FBS) (Gibco), 2.7% sodium bicarbonate, 2% L-glutamine, 1% Hepes buffer, 500 mg/L ampicillin and 40 mg/L gentamicin. MCF-7TG cells were grown in the same medium described above supplemented by 200 μg/ml geneticin G418 and 1μM Dex to induce gef gene expression. MCF-10A grown in DMEM/F12 medium with 5% horse serum (HS), 0.02 μg/ml epithelial growth factor (EGF), 0.5 μg/ml hydrocortisone, 100 ng/ml cholera toxin and 0.01 μg/ml insulin.
(§4) To assess the effect of the different drugs on cell viability we used the sulforhodamine-B colorimetric assay. Cells were resuspended and seeded at a density of 5 × 10^3 cells/well onto 12-well plates kept growing for 24 h. After that, the compounds were added at different concentrations to the cells (0.5, 0.7, 1, 2, 5, and 10 μM) (Figure 1). After 72 h treatment, the medium was discarded and fresh medium and treatment was added. Cells were maintained for 3 days more with the treatment. Finally, they were processed as previously described ([Boulaiz et al., 2003b]) using a Titertek Multiscan apparatus (Flow Laboratories, Irvine, United Kingdom) at 492 nm. We used the cell number for each cell stock before each cell growth experiment to set the linearity of the sulforhodamine-B assay. To calculate the IC50 values we used semilogarithmic dose–response curves to make a linear interpolation. All of the experiments were performed in triplicate wells for each treatment and were repeated at least twice.
Background: Sulforhodamine B stains cellular protein and so reports cell mass.

In test [2] the test system is MCF-7TG cell line. Briefly: Flow cytometric analysis of the cell cycle, MCF-7TG. In kind it is cell-based, human. The conditions noted are these: 72 h, IC50 of compound. On the procedure: (§5) Cells were grown at 70% confluence and treated with either DMSO alone or with different concentrations of the compounds corresponding to their IC50 values. Flow cytometry analysis was carried out after 72 h of treatment as described ([Marchal et al., 2004]). The results were representative of three independent experiments.

Test [3] has as its system MCF-7 cell line. Briefly: Flow cytometric analysis of the cell cycle, MCF-7. The following applies: MCF-7, 72 h, IC50 of compound; for S phase cells: control 17.41 ± 0.81%; for G2/M phase cells: control 17.56 ± 0.87%. In kind it is cell-based, human. On the procedure:
as §5

Test [4] concerns epithelial MCF-10A cell line. The test can be described thus: Sulforhodamine-B cytotoxicity assay, MCF-10A. In kind it is cell-based. The following applies: Homo sapiens, non-tumoral breast cell line.
Text: as §3, §4

The test system of another test is MCF-7 cells. The test can be described thus: In vitro cell proliferation assay over 15 days, MCF-7. The following applies: MCF-7, 15 days of treatment. In kind it is cell-based, human. On the procedure:
as §2

In test [5] the test system is MCF-7 cell line. The test can be described thus: Annexin V-FITC/PI apoptosis flow cytometry, MCF-7. In kind it is cell-based, human. The conditions noted are these: MCF-7, 72 h, IC50 of compound; control 8.15 ± 0.40%.
Text: as §1

In another test the test system is MCF-7 cancer cell line. The test can be described thus: Sulforhodamine-B cytotoxicity assay, MCF-7. In kind it is cell-based. The following applies: Homo sapiens, MCF7, 144 h, 6 days of treatment. On the procedure:
as §4

`O=[N+]([O-])c1ccc(S(=O)(=O)N2CC(n3cnc4c(Cl)nc(Cl)nc43)OCc3ccccc32)cc1` (racemic) [Bozepinib, (R,S)-2,6-dichloro-9-[1-(p-nitrobenzenesulfonyl)-1,2,3,5-tetrahydro-4,1-benzoxazepine-3-yl]-9H-purine] returned a necrotic cells in the test with MCF-7TG cell line [1] of 47.03 ± 1.07%. Besides, the growth inhibition in the test on MCF-7TG cells (IC50 of compound) is reported as 81.42%; in the test with MCF-7 cells (2*IC50 of compound) it was 89.42%; in the test on MCF-7 cells (IC50 of compound), 76%. Moreover, the “type of synergistic effect with the gef gene” value (“type of synergistic effect” for short) with MCF-7TG cells was “enhanced synergetic effect”. Moreover, the IC50 in the test on MCF-7TG cancer cell line is 0.56 ± 0.01 µM; in [4], 6.33 ± 0.03 µM; with MCF-7 cancer cell line, 1.23 ± 0.05 µM. Also, the G0/G1 phase cells in the test with MCF-7TG cell line [2] amounted to 85.98 ± 4.29%. For the same molecule, the S phase cells with MCF-7 cell line [3] amounted to 12.29 ± 0.90%. Further, in the test with MCF-7 cell line [3], the G2/M phase cells is 22.98 ± 1.14%. Also, the “cells in early apoptosis” value in the test with MCF-7 cell line [5] worked out at 40.41 ± 2.02%.
On to `COC(CN(c1ccccc1CO)S(=O)(=O)c1ccc([N+](=O)[O-])cc1)n1cnc2c(Cl)nc(Cl)nc21` (stereo not drawn) [ACG-812c-F1], for which the IC50 with MCF-7TG cancer cell line worked out at 8.75 ± 0.18 µM; in test [4], 17.48 ± 0.12 µM; in the test with MCF-7 cancer cell line it was 9.43 ± 0.07 µM.
For `O=[N+]([O-])c1ccccc1S(=O)(=O)N1CC(n2cnc3c(Cl)nc(Cl)nc32)OCc2ccccc21` (stereo not drawn) [FC-26c], the necrotic cells in the test on MCF-7TG cell line [1] amounted to 54.38 ± 2.3%. Further, the “type of synergistic effect” value with MCF-7TG cells was “enhanced synergetic effect”. The half-inhibitory concentration (IC50) with MCF-7TG cancer cell line came out at 0.65 ± 0.03 µM; in test [4], 9.187 ± 0.08 µM; with MCF-7 cancer cell line, 2.6 ± 0.1 µM. In addition, the G0/G1 phase cells in the test with MCF-7TG cell line [2] was found to be 81.25 ± 4.05%. The molecule further came in with a growth inhibition in the test with MCF-7 cells (IC50 of compound) of 61.6%. Besides, in the test with MCF-7 cell line [5], the “cells in early apoptosis” value is 37.63 ± 1.88%.
`Nc1ccccc1S(=O)(=O)N1CC(n2cnc3c(Cl)nc(Cl)nc32)OCc2ccccc21` (stereo not drawn) [FC-29b]: the necrotic cells in the test on MCF-7TG cell line [1] was 51.92 ± 2.09%. Also, the growth inhibition in the test on MCF-7TG cells (2*IC50 of compound) is 70.48% and 70%; with MCF-7TG cells (IC50 of compound) it was 60%; in the test with MCF-7 cells (2*IC50 of compound) it was 70.48% and 70%; in the test on MCF-7 cells (IC50 of compound), 61.91%. The “type of synergistic effect” value in the test with MCF-7TG cells is given as “additive synergetic effect”. Also, the IC50 with MCF-7TG cancer cell line turned out to be 1.9 ± 0.02 µM; in test [4], 4.04 ± 0.09 µM; in the test on MCF-7 cancer cell line, 5.02 ± 0.12 µM. In addition, the G0/G1 phase cells in the test with MCF-7TG cell line [2] is 80.07 ± 4.01%. In addition, the S phase cells in the test with MCF-7 cell line [3] stood at 9.47 ± 0.30%. This molecule registered a G2/M phase cells with MCF-7 cell line [3] of 26.12 ± 1.20%. Besides, the “cells in early apoptosis” value in the test on MCF-7 cell line [5] worked out at 57.62 ± 2.88%.
For `O=S(=O)(c1ccccc1NO)N1CC(n2cnc3c(Cl)nc(Cl)nc32)OCc2ccccc21` (stereo not drawn) [FC-29d], the IC50 with MCF-7TG cancer cell line is 6.7 ± 0.01 µM; in [4] it was 47.12 ± 0.05 µM; in the test on MCF-7 cancer cell line, 8.98 ± 0.3 µM.
In turn, `O=[N+]([O-])c1ccccc1S(=O)(=O)N1CC(n2cnc3nc(Cl)nc(Cl)c32)OCc2ccccc21` (stereo not drawn) [FC-30b2] gave a necrotic cells in the test on MCF-7TG cell line [1] of 65.09 ± 2.47%. Also, the growth inhibition worked out at 81.14% in the test on MCF-7TG cells (IC50 of compound), 96% in the test with MCF-7 cells (2*IC50 of compound) and 82% with MCF-7 cells (IC50 of compound). The “type of synergistic effect” value in the test on MCF-7TG cells is recorded as “enhanced synergetic effect”. In addition, the 50% inhibitory concentration (IC50) was determined as 1.8 ± 0.08 µM in the test on MCF-7TG cancer cell line, 9.9 ± 0.08 µM in [4] and 7.75 ± 0.06 µM in the test on MCF-7 cancer cell line. This molecule showed a G0/G1 phase cells in the test with MCF-7TG cell line [2] of 72.96 ± 3.50%. The molecule also returned a S phase cells in the test on MCF-7 cell line [3] of 0.63 ± 0.01%. In addition, the G2/M phase cells in the test on MCF-7 cell line [3] is given as 33.22 ± 1.66%. Besides, in the test with MCF-7 cell line [5], the “cells in early apoptosis” value was 73.27 ± 3.66%.

As usually defined, the IC50 is the point on the concentration scale where inhibition reaches its midpoint.
